Test results: patent US8476265B2, “Compounds-801” (AstraZeneca AB, priority 2010, dated 2013)

Key:
[1] = target: T1, Adrenergic β2 (Homo sapiens, UniProt P07550); assay: Adrenergic β2 mediated cAMP production in H292 cells, single concentration 1 μM; type: cell-based; conditions: NCI-H292, 1 μM compound, cAMP as percentage of the maximum response generated by 1E-07M formoterol, read-out: β2 % effect @1 uM
T1 construct: Adherent H292 cells are removed from tissue culture flasks by treatment with Accutase™ cell detachment solution; endogenous in cells; host or cells: H292 cells
T1 sequence (P07550 whole entry): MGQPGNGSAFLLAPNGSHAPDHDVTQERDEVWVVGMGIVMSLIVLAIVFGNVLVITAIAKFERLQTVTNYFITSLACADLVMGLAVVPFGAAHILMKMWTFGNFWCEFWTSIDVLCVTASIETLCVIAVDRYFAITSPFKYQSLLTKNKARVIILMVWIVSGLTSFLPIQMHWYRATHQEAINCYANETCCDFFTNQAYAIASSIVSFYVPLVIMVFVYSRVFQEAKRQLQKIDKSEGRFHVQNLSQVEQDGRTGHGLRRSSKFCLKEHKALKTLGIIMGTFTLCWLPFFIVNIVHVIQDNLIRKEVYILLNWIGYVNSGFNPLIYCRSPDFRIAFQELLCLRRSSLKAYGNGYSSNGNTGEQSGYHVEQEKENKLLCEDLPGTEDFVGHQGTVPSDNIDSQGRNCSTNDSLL
Description: The following experimental procedure was used to measure the beta-2% effect at 1 μM for the compounds of Examples 99-175. Adrenergic p2 Mediated cAMP Production Cell Preparation
H292 cells are grown in 225 cm2 flasks incubator at 37° C., 5% CO2 in RPMI medium containing 10% (v/v) FBS (foetal bovine serum) and 2 mM L-glutamine.
Compounds are prepared by an initial first dilution into DMSO to give 1 mM stock concentration. This is followed by a 1 in 10 dilution of the stock concentration (10 μl stock compound +90 μl DMSO) to give 0.1 mM compound. A compound addition plate is prepared by making a further 1 in 25 dilution in assay buffer (HBSS solution containing 10 mM HEPES pH7.4 and 5 mM glucose) containing 4% dimethylsulfoxide. The final compound concentration in assay is 1 μM.
Adherent H292 cells are removed from tissue culture flasks by treatment with Accutase™ cell detachment solution for 15 minutes. Flasks are incubated for 15 minutes in a humidified incubator at 37° C., 5% CO2. Detached cells are re-suspended in RPMI media (containing 10% (v/v) FBS and 2 mM L-glutamine) at 0.1×10^6 cells per mL. 10000 cells in 100 μL are added to each well of a tissue-culture-treated 96-well plate and the cells incubated overnight in a humidified incubator at 37° C., 5% CO2. The culture media is removed and cells are washed twice with 100 μL assay buffer and replaced with 50 μL assay buffer (HBSS solution containing 10 mM HEPES pH7.4 and 5 mM glucose). Cells are rested at room temperature for 20 minutes after which time 25 μL of rolipram (1.2 mM made up in assay buffer) is added. Cells are incubated with rolipram for 10 minutes after which time 25 μl test compounds are added and the cells are incubated for 60 minutes at room temperature. The final rolipram concentration in the assay is 300 μM and final vehicle concentration is 1% (v/v) dimethylsulphoxide. The reaction is stopped by removing supernatants, washing once with 100 μL assay buffer and replacing with 50 μL lysis buffer. The cell monolayer is frozen at −80° C. for 30 minutes (or overnight).
AlphaScreen™ cAMP Detection
The concentration of cAMP (cyclic adenosine monophosphate) in the cell lysate is determined using AlphaScreen™ methodology. The frozen cell plate is thawed for 20 minutes on a plate shaker then 10 μL of the cell lysate is transferred to a 96-well white plate. 40 μl of mixed AlphaScreen™ detection beads (containing equal volumes of donor beads (pre-incubated with biotinylated cAMP in the dark for 30 minutes) and acceptor beads is added to each well and the plate incubated at room temperature for 3 hours in the dark. The AlphaScreen™ signal is measured using an EnVision spectrophotometer (Perkin-Elmer Inc.) with the recommended manufacturer's settings. Concentration of cAMP produced per well were calculated with reference to the cAMP standard curve determined in the same experiment and expressed as a percentage of the maximum response generated by 1E-07M formoterol.

[2] = target: T2, human muscarinic acetylcholine M3 receptor (Homo sapiens, UniProt P20309); assay: Muscarinic 3 receptor binding assay ([3H]NMS competition, SPA), single concentration 1 μM; conditions: 1 μM compound; % inhibition specific [3H]-NMS binding
T2 construct: expressed in transfected cells; host or cells: CHO-K1 (Chinese Hamster Ovary) cell membranes
T2 sequence (P20309 whole entry): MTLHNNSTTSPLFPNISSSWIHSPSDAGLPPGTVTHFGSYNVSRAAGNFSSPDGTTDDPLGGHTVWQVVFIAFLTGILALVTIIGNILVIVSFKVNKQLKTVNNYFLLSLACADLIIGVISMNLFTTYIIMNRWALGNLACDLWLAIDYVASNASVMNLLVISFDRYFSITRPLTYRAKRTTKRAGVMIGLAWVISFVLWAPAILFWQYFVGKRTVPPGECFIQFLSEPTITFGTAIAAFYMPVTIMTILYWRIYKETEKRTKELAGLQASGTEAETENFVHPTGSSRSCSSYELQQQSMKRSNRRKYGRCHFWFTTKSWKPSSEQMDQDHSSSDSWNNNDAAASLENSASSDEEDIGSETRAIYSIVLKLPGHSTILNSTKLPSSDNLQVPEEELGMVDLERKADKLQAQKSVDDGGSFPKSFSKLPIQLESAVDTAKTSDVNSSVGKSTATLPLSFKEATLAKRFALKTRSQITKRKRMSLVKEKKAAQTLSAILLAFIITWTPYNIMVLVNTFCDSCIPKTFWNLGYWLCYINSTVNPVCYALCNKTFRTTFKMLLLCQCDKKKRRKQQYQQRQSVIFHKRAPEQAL
Description: The following experimental procedure was used to determine the M3% inhibition at 1 μM of the compounds of Examples 99-175
Muscarinic 3 Receptor Binding Assay
The activity (% inhibition specific binding) of compounds on the M3 receptor is determined by competition binding of [^3H]N-methyl scopolamine (NMS) to CHO-K1 (Chinese Hamster Ovary) cell membranes expressing the human muscarinic acetylcholine M3 receptor (M3-ACh) in a scintillation proximity assay (SPA) format. SPA beads are precoated with membranes and then incubated at 2 mg of beads per well with 1 μM compound of the invention, [^3H]NMS at 0.1 nM, quarter Kd (experimentally determined dissociation constant) and assay buffer (20 mM HEPES pH 7.4 containing 5 mM MgCl2 and 0.1% (w/v) bovine serum albumin). The assay is conducted in a final volume of 200 μL, in the presence of 1% (v/v) dimethyl sulphoxide (DMSO). Total binding of [^3H]NMS is determined in the absence of competing compound and non-specific binding of [^3H]NMS is determined in the presence of 1 μM atropine. The plates are incubated for 16 hours at room temperature and then read on Wallac Microbeta™ using a normalised ^3H protocol. The compound activity at 1 μM, defined as % inhibition specific [^3H]-NMS binding, is determined.

[3] = target: T1, Adrenergic β2; assay: Adrenergic β2 mediated cAMP production in H292 cells (AlphaScreen), concentration response; type: cell-based; conditions: for EC50: 60 min, 300 μM rolipram, read-out: β2 pEC50 (converted); for β2 Intrinsic Activity: fraction relative to the maximum activity determined for formoterol
Procedure, shortened: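 Intracellular cAMP in lysates read by AlphaScreen, calibrated with cAMP standards; curves fitted for pEC50, with intrinsic activity as a fraction of formoterol's maximum. Agonist exposure 60 min at room temperature after 10 min rolipram (300 μM final), 1% DMSO, HEPES-buffered HBSS pH 7.4.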

[4] = target: T2, human muscarinic acetylcholine M3 receptor; assay: Muscarinic 3 receptor binding assay ([3H]NMS competition, SPA), pIC50; conditions: [3H]NMS 0.1 nM, CHO-K1 cell membranes expressing human M3 receptor
Procedure, shortened: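 SPA beads precoated with human M3-expressing CHO-K1 membranes were incubated 16 h at room temperature with serially diluted compound and 0.1 nM [3H]NMS (pH 7.4 HEPES buffer, MgCl2, BSA, 1% DMSO). Atropine (1 μM) defined non-specific binding; pIC50 is the 50% reduction in specific binding.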

Row | Compound | percent of formoterol maximum response at 1 µM [1] [%] | inhibition at 1 µM [2] [%] | EC50 [3] [nM] | β2 Intrinsic Activity [3] | IC50 [4] [nM]
1 | O=C1COc2c(CCNCCN(C(=O)CCOCCc3cccc(CN4CCC5(CC4)CN(C(=O)c4cccc6[nH]ccc46)CCO5)c3)C3CCCCC3)ccc(O)c2N1 [Example 168, 3-(3-((4-(1H-Indole-4-carbonyl)-1-oxa-4,9-diazaspiro[5.5]undecan-9-yl)methyl)phenethoxy)-N-cyclohexyl-N-(2-(2-(5-hydroxy-3-oxo-3,4-dihydro-2H-benzo[b][1,4]oxazin-8-yl)ethylamino)ethyl)propanamide] | 103 | 92 |  |  | 
2 | CCN(CCNCCc1ccc(O)c2[nH]c(=O)sc12)C(=O)CCOCCc1cccc(CN2CCC3(CC2)CN(C(=O)c2csc(C(C)C)n2)CCO3)c1OC [Example 68, N-Ethyl-N-(2-(2-(4-hydroxy-2-oxo-2,3-dihydrobenzo[d]thiazol-7-yl)ethylamino)ethyl)-3-(3-((4-(2-isopropylthiazole-4-carbonyl)-1-oxa-4,9-diazaspiro[5.5]undecan-9-yl)methyl)-2-methoxyphenethoxy)propanamide ditrifluoroacetate] |  |  | 10 | 0.6 | 10
3 | CCN(CCNCCc1ccc(O)c2[nH]c(=O)sc12)C(=O)CCOCCc1cccc(OCCCN2CCC3(CC2)CN(C(=O)c2csc(C(C)C)n2)CCO3)c1 [Example 61, N-Ethyl-N-(2-(2-(4-hydroxy-2-oxo-2,3-dihydrobenzo[d]thiazol-7-yl)ethylamino)ethyl)-3-(3-(3-(4-(2-isopropylthiazole-4-carbonyl)-1-oxa-4,9-diazaspiro[5.5]undecan-9-yl)propoxy)phenethoxy)propanamide ditrifluoroacetate] |  |  | 20 | 0.7 | 2
4 | CC(C)c1nc(C(=O)N2CCOC3(CCN(CCc4cc(CCOCCC(=O)N(CCNCCc5ccc(O)c6c5OCC(=O)N6)C5CCCCC5)cs4)CC3)C2)cs1 [Example 63, N-Cyclohexyl-N-(2-(2-(5-hydroxy-3-oxo-3,4-dihydro-2H-benzo[b][1,4]oxazin-8-yl)ethylamino)ethyl)-3-(2-(5-(2-(4-(2-isopropylthiazole-4-carbonyl)-1-oxa-4,9-diazaspiro[5.5]undecan-9-yl)ethyl)thiophen-3-yl)ethoxy)propanamide ditrifluoroacetate] |  |  | 158 | 1.1 | 2
5 | CCc1nc(C(=O)N2CCOC3(CCN(Cc4cccc(CCOCCC(=O)N(CCNCCc5ccc(O)c6c5OCC(=O)N6)C5CCCC5)c4Cl)CC3)C2)cs1 [Example 33, 3-(2-Chloro-3-((4-(2-ethylthiazole-4-carbonyl)-1-oxa-4,9-diazaspiro[5.5]undecan-9-yl)methyl)phenethoxy)-N-cyclopentyl-N-(2-(2-(5-hydroxy-3-oxo-3,4-dihydro-2H-benzo[b][1,4]oxazin-8-yl)ethylamino)ethyl)propanamide ditrifluoroacetate] |  |  | 15.8 | 1.0 | 0.398
6 | CCc1nc(C(=O)N2CCOC3(CCN(Cc4cccc(CCOCCC(=O)N(CC)CCNCCc5ccc(O)c6c5OCC(=O)N6)c4Cl)CC3)C2)cs1 [Example 30, 3-(2-Chloro-3-((4-(2-ethylthiazole-4-carbonyl)-1-oxa-4,9-diazaspiro[5.5]undecan-9-yl)methyl)phenethoxy)-N-ethyl-N-(2-(2-(5-hydroxy-3-oxo-3,4-dihydro-2H-benzo[b][1,4]oxazin-8-yl)ethylamino)ethyl)propanamide ditrifluoroacetate] |  |  | 7.94 | 0.8 | 0.316

More lines, now with the values ahead:

Row | percent of formoterol maximum response at 1 µM [1] [%] | inhibition at 1 µM [2] [%] | EC50 [3] [nM] | β2 Intrinsic Activity [3] | IC50 [4] [nM] | Compound
7 |  |  | 31.6 | 1.0 | 0.1 | CCCC[C@@H](C)N(CCNCCc1ccc(O)c2c1OCC(=O)N2)C(=O)CCOCCc1ccc(CCN2CCC3(CC2)CN(C(=O)c2csc(C)n2)CCO3)cc1 [Example 6, (R)—N-(Hexan-2-yl)-N-(2-(2-(5-hydroxy-3-oxo-3,4-dihydro-2H-benzo[b][1,4]oxazin-8-yl)ethylamino)ethyl)-3-(4-(2-(4-(2-methylthiazole-4-carbonyl)-1-oxa-4,9-diazaspiro[5.5]undecan-9-yl)ethyl)phenethoxy)propanamide ditrifluoroacetate]
8 |  |  | 316 | 0.9 | < 0.0501 | CC(C)c1nc(C(=O)N2CCOC3(CCN(Cc4cccc(CCCOCCC(=O)N(CCNCCc5ccc(O)c6c5OCC(=O)N6)C5CCCCC5)c4)CC3)C2)cs1 [Example 57, N-Cyclohexyl-N-(2-(2-(5-hydroxy-3-oxo-3,4-dihydro-2H-benzo[b][1,4]oxazin-8-yl)ethylamino)ethyl)-3-(3-(3-((4-(2-isopropylthiazole-4-carbonyl)-1-oxa-4,9-diazaspiro[5.5]undecan-9-yl)methyl)phenyl)propoxy)propanamide ditrifluoroacetate]
9 |  |  | 31.6 | 0.8 | 0.251 | CC(C)c1nc(C(=O)N2CCOC3(CCN(Cc4cccc(COCCOCCC(=O)N(CCNCCc5ccc(O)c6c5OCC(=O)N6)C5CCCCC5)c4)CC3)C2)cs1 [Example 67, N-Cyclohexyl-N-(2-(2-(5-hydroxy-3-oxo-3,4-dihydro-2H-benzo[b][1,4]oxazin-8-yl)ethylamino)ethyl)-3-(2-(3-((4-(2-isopropylthiazole-4-carbonyl)-1-oxa-4,9-diazaspiro[5.5]undecan-9-yl)methyl)benzyloxy)ethoxy)propanamide ditrifluoroacetate]
10 |  |  | 251 | 1.1 | 0.316 | CCc1ccc(C(=O)N2CCOC3(CCN(Cc4cccc(CCOCCC(=O)N(CCNCCc5ccc(O)c6c5OCC(=O)N6)C5CCCCC5)c4)CC3)C2)s1 [Example 83, N-Cyclohexyl-3-(3-((4-(5-ethylthiophene-2-carbonyl)-1-oxa-4,9-diazaspiro[5.5]undecan-9-yl)methyl)phenethoxy)-N-(2-(2-(5-hydroxy-3-oxo-3,4-dihydro-2H-benzo[b][1,4]oxazin-8-yl)ethylamino)ethyl)propanamide]
